Measured values as given in patent US11453632B2, “1-phenyl-2-phenylethane derivative” (KAO CORPORATION, priority 2018, dated 2022).

Legend:
[1] = molecular target: T1, ERβ LBD (Homo sapiens, UniProt Q92731); test: Ability to bind to ERβ: pBIND-ERβ LBD / GAL4 luciferase reporter in HEK293 cells; assay type: cell-based; parameters: key: RLU = firefly luminescence / Renilla luminescence; conditions: negative control 0.0118997
T1 construct: host or cells: HEK293
Procedure: This evaluation system is a system exploiting difference in the sequence of the ligand binding domain (LBD) between ERα and ERβ (J Endocrinol 163: 379-383 (1999)), and enables selective activation of ERβ to be evaluated by determining the binding of a ligand to LBD and the activation of ER.
(§1) A human kidney-derived cell line HEK293 was cultured (37° C., 5% CO2) in Dulbecco's modified Eagle medium (hereinafter, abbreviated to DMEM) containing 10% (v/v) fetal bovine serum (FBS) and penicillin/streptomycin.
(§2) 2) Measurement of Binding Activity Against ERs
(§3) This measurement was carried out according to the method described in JP-B-5990058. Specifically, HEK293 cells were inoculated at a cell density of 4.0×10^4 cells/well to a 96-well plate. After 12 hours therefrom, the medium was replaced with a culture solution (DMEM containing 5% (v/v) charcoal-treated serum). The cells were cotransfected with pBIND-ERα for the expression of ERα LBD or pBIND-ERβ for the expression of ERβ LBD (Promega Corp.) and pGL4.35[luc2P/9XGAL4UAS/Hygro](Promega Corp.) using Lipofectamine 2000 (Invitrogen Corp.) according to the protocol attached to the product. 24 hours after transfection, the medium was replaced with a culture solution containing a test sample, followed by culture for another 24 hours. The activity measurement of firefly luciferase (index for the ligand binding activity of ER) and Renilla reniformis luciferase (index for the transfection efficiency of the plasmids) was carried out using Dual-Glo™ Luciferase Assay System (Promega Corp.) according to the attached protocol. The luminescence intensity of the firefly luciferase was divided by the luminescence intensity of the Renilla reniformis luciferase to calculate a relative light unit (RLU).

[2] = molecular target: T2, ERα LBD (Homo sapiens, UniProt P03372); test: Ability to bind to ERα: pBIND-ERα LBD / GAL4 luciferase reporter in HEK293 cells; assay type: cell-based; parameters: key: firefly luciferase / Renilla luciferase luminescence ratio; conditions: negative control 0.00847035
T2 construct: host or cells: HEK293
T2 sequence (P03372 311-547 limits assumed): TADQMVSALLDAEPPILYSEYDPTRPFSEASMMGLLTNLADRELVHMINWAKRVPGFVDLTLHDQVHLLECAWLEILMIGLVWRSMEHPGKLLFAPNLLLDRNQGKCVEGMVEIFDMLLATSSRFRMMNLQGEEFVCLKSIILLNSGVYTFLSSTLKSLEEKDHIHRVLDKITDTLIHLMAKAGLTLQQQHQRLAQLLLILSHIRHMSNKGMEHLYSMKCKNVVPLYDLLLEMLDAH
Procedure: as §1, §2
as §3, with “Specifically,” for “This measurement was carried out according to the method described in JP-B-5990058. Specifically,”

T1 sequence (Q92731 264-498 limits assumed): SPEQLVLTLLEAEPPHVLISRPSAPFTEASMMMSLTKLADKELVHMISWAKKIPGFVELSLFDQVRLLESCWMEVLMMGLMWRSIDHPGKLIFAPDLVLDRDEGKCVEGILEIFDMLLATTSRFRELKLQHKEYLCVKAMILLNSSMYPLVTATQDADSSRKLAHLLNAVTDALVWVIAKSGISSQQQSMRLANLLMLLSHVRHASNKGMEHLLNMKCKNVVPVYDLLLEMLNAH

Compound	relative light unit (RLU), ligand binding activity ERβ ([1]; 1 nM)	relative light unit (RLU), ligand binding activity ERβ ([1]; 10 nM)	relative light unit (RLU), ligand binding activity ERβ ([1]; 100 nM)	relative light unit (RLU), ligand binding activity ERα ([2]; 1 nM)	relative light unit (RLU), ligand binding activity ERα ([2]; 10 nM)	relative light unit (RLU), ligand binding activity ERα ([2]; 100 nM)	relative light unit (RLU), ligand binding activity ERβ ([1]; 0.01 nM)	relative light unit (RLU), ligand binding activity ERβ ([1]; 0.1 nM)	relative light unit (RLU), ligand binding activity ERα ([2]; 0.01 nM)	relative light unit (RLU), ligand binding activity ERα ([2]; 0.1 nM)
Oc1ccc(CC(c2ccc(O)cc2)C2CC2)cc1 (stereo not drawn) [Compound 1, 4,4′-(1-cyclopropylethane-1,2-diyl)diphenol]	0.04726	0.7801	0.674	0.01123	0.01001	0.03514	–	–	–	–
CC=CC(Cc1ccc(O)cc1)c1ccc(O)cc1 (stereo not drawn) [Compound 5, 4,4′-(pent-3-ene-1,2-diyl)diphenol]	0.9744	1.153	1.216	0.006803	0.008307	0.319	0.01699	0.1395	–	–
CCC(C)C(Cc1ccc(O)cc1)c1ccc(O)cc1 (stereo not drawn) [Compound 6, 4,4′-(3-methylpentane-1,2-diyl)diphenol]	0.01046	0.02031	0.2041	0.008097	0.01098	0.01183	–	–	–	–
O=C(NC(Cc1ccc(O)cc1)c1ccc(O)cc1)C(F)(F)F (stereo not drawn) [Compound 10, N-(1,2-bis(4-hydroxyphenyl)ethyl)-2,2,2-trifluoroacetamide]	0.01539	0.0134	0.2211	0.008272	0.0163	0.01156	–	–	–	–
Oc1ccc(CC(C=C(Cl)Cl)c2ccc(O)cc2F)c(F)c1 (stereo not drawn) [Compound 17-Cl, 4,4′-(4,4-dichlorobut-3-ene-1,2-diyl)bis(3-fluorophenol)]	1.22	1.682	2.029	0.05395	0.92	2.707	0.04108	0.116	0.03467	0.03125
Oc1ccc(C(C=C(Cl)Cl)Cc2c(F)cc(O)cc2F)cc1 (stereo not drawn) [Compound 18-Cl, 4-(4,4-dichloro-2-(4-hydroxyphenyl)but-3-en-1-yl)-3,5-difluorophenol]	1.819	1.997	2.261	0.122	2.2626	3.229	0.07422	0.4259	0.0398	0.04255

Second part, the compound after the results:

relative light unit (RLU), ligand binding activity ERβ ([1]; 1 nM)	relative light unit (RLU), ligand binding activity ERβ ([1]; 10 nM)	relative light unit (RLU), ligand binding activity ERβ ([1]; 100 nM)	relative light unit (RLU), ligand binding activity ERα ([2]; 1 nM)	relative light unit (RLU), ligand binding activity ERα ([2]; 10 nM)	relative light unit (RLU), ligand binding activity ERα ([2]; 100 nM)	relative light unit (RLU), ligand binding activity ERβ ([1]; 0.01 nM)	relative light unit (RLU), ligand binding activity ERβ ([1]; 0.1 nM)	relative light unit (RLU), ligand binding activity ERα ([2]; 0.01 nM)	relative light unit (RLU), ligand binding activity ERα ([2]; 0.1 nM)	Compound
0.9979	1.068	1.031	0.007223	0.1184	0.423	0.01223	0.5254	0.005812	0.005926	Oc1ccc(CC(C=CF)c2ccc(O)cc2)cc1 (stereo not drawn) [Compound 8, 4,4′-(4-fluorobut-3-ene-1,2-diyl)diphenol]
0.03073	0.02066	0.026	0.01753	0.01191	0.008685	0.01836	0.01732	0.006803	0.02077	Oc1ccc(CC(c2ccc(O)cc2)c2ccn[nH]2)cc1 (stereo not drawn) [Compound 12, 4,4′-(1-(1H-pyrazol-5-yl)ethane-1,2-diyl)diphenol]
0.02471	0.04313	0.8322	0.01285	0.01611	0.01431	0.01293	0.01887	0.01362	0.006796	Oc1ccc(CC(c2ccc(O)cc2)c2cnco2)cc1 (stereo not drawn) [Compound 13, 4,4′-(1-(oxazol-5-yl)ethane-1,2-diyl)diphenol]
0.02069	0.08851	0.9946	0.02004	0.01493	0.02047	0.02708	0.02188	0.01031	0.01495	Oc1ccc(CC(c2ccc(O)cc2)c2ncon2)cc1 (stereo not drawn) [Compound 14, 4,4′-(1-(1,2,4-oxadiazol-3-yl)ethane-1,2-diyl)diphenol]
0.01759	0.06729	0.8625	0.01714	0.0182	0.0245	0.0173	0.02216	0.01424	0.01773	Oc1ccc(CC(c2ccc(O)cc2)c2cocn2)cc1 (stereo not drawn) [Compound 16, 4,4′-(1-(oxazol-4-yl)ethane-1,2-diyl)diphenol]
